Consider 13 molecules from patent US5118691A, “Substituted tetrahydropyridines as central nervous system agents” (Warner-Lambert Co., priority 1991, dated 1992).

Each structure is given as a SMILES string.

One experiment has as its system locomotor activity in mice. The experiment can be described thus: Inhibition of locomotor activity in mice. It is filed as in vivo. Particulars: Mus musculus, IP. On the procedure:
(§1) The compounds of Formula I are valuable dopaminergic agents. […] Thus, the compounds of Formula I were tested for their ability to inhibit locomotor activity in mice according to the assay described by J. R. McLean, et al, Pharmacology, Biochemistry and Behavior, Volume 8, pages 97-99 (1978); for their ability to inhibit [^3 H]-spiroperidol binding in a receptor assay described by D. Grigoriadis and P. Seeman, Journal of Neurochemistry, Volume 44, pages 1925-1935 (1985); and for their ability to inhibit dopamine synthesis in rats according to the protocol described by J. R. Walters and R. H. Roth, Naunyn-Schmiedeberg's Archives of Pharmacology, Volume 296, pages 5-14 (1976). The above test methods are incorporated herein by reference. The data in the table show the dopaminergic activity of representative compounds of Formula I.
Regarding `C1=C(c2c[nH]c3ccccc23)CCN(CCCCc2ccncc2)C1` [Example 3], the 50% effect level (ED50) was put at a dose of 5 mg/kg.
Consider `C1=C(c2ccccc2)CCN(CCCCc2ccncc2)C1` [Example 1, 4-[4-(3,6-Dihydro-4-phenyl-1(2H)-pyridinyl)butyl]-pyridine], for which it took a dose of 0.6 mg/kg to reach the 50% effect level (ED50).
Still for that read-out and setting: the same measure for `O=C(CCCN1CC=C(c2ccccc2)CC1)c1ccncc1` [Example 10, 4-(3,6-Dihydro-4-phenyl-1(2H)-pyridinyl)-1-(4-pyridinyl)-1-butanone]: 1 mg/kg; for `C1=C(c2cccs2)CCN(CCCCc2ccncc2)C1` [Example 4, 4-[4-[3,6-Dihydro-4-(2-thienyl)-1(2H)-pyridinyl]-butyl]pyridine]: 1.2 mg/kg.
Same read-out and setting: the same measure for `C1=C(c2ccccc2)CCN(CCCCc2cccnc2)C1` [Example 12, 3-[4-(3,6-Dihydro-4-phenyl-1(2H)-pyridinyl)butyl]-pyridine]: 0.28 mg/kg; for `C1=C(c2ccccc2)CCN(CCCCc2cnc3ccccc3c2)C1` [Example 13, 3-[4-(3,6-Dihydro-4-phenyl-1(2H)-pyridinyl)butyl]-quinoline]: 0.37 mg/kg.
As to `C1=C(c2ccccc2)CCN(CCCc2ccncc2)C1` [Example 5, 4-[3-(3,6-Dihydro-4-phenyl-1(2H)-pyridinyl)propyl]-pyridine], it took a dose of 0.63 mg/kg to reach the 50% effect level (ED50).
Same read-out and setting: for `C1=C(c2cccs2)CCN(CCCCc2cccnc2)C1` [Example 8, 3-[4-[3,6-Dihydro-4-(2-thienyl)-1(2H)-pyridinyl]-butyl]pyridine] the value was 0.66 mg/kg; for `O=C(CCCN1CC=C(c2ccccc2)CC1)c1cccnc1` [Example 9, 4-(3,6-Dihydro-4-phenyl-1(2H)-pyridinyl)-1-(3-pyridinyl)-1-butanone], 1.1 mg/kg; for `C1=C(c2ccccn2)CCN(CCCCc2ccncc2)C1` [Example 2, 2-[1,2,3,6-Tetrahydro-1-[4-(4-pyridinyl)butyl]-4-pyridinyl]pyridine], 0.7 mg/kg.
Turning to `C1=C(c2cccs2)CCN(CCCCc2cnc3ccccc3c2)C1` [Example 14], the ED50 – broadly, the dose that gives a 50% effect, or the effect in half of the subjects – was 1.5 mg/kg.
Still for that read-out and setting: for `C1=C(c2ccccc2)CCN(CCCCCc2ccncc2)C1` [Example 7, 4-[5-(3,6-Dihydro-4-phenyl-1(2H)-pyridinyl)pentyl]-pyridine] the value was 0.9 mg/kg; for `C1=C(c2ccccn2)CCN(CCCCc2cnc3ccccc3c2)C1` [Example 15, 3-[4-[3,6-Dihydro-4-(2-pyridinyl)-1(2H)-pyridinyl]-butyl]quinoline], 0.14 mg/kg.

The target of a further experiment is T1, [^3 H]-spiroperidol binding (Rattus norvegicus, UniProt P61169).
T1 construct: from tissue; host or cells: brain striatum (own knowledge from the cited method)
T1 sequence (P61169 whole entry): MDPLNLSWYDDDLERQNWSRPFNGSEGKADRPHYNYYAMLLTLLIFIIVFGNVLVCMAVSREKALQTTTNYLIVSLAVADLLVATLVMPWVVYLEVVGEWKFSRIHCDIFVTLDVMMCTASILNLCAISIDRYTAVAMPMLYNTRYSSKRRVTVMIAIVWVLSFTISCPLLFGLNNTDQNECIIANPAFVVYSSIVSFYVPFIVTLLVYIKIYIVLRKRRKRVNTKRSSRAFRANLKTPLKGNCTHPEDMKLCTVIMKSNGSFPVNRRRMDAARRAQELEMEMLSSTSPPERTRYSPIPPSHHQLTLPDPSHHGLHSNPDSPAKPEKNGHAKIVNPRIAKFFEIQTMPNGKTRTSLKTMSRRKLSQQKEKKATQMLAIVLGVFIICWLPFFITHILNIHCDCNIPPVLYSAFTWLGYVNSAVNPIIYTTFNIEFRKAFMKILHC
Description: Inhibition of [^3 H]-spiroperidol binding in a receptor assay.
Conditions: not given
On the procedure: as §1
As to `C1=C(c2ccccc2)CCN(CCCCc2ccncc2)C1` [Example 1, 4-[4-(3,6-Dihydro-4-phenyl-1(2H)-pyridinyl)butyl]-pyridine], the IC50 (commonly the point on the concentration scale where inhibition reaches its midpoint) stood at 96 nM.
The same measure, in the same setting: for `C1=C(c2cccs2)CCN(CCCCc2ccncc2)C1` [Example 4, 4-[4-[3,6-Dihydro-4-(2-thienyl)-1(2H)-pyridinyl]-butyl]pyridine] the value was 690 nM.
The same measure, in the same setting: the same measure for `C1=C(c2ccccc2)CCN(CCCCc2cnc3ccccc3c2)C1` [Example 13, 3-[4-(3,6-Dihydro-4-phenyl-1(2H)-pyridinyl)butyl]-quinoline]: 46 nM.

The experiment is the same for the next values; noted with them: read-out: Inhibition of [^3 H]Spiroperidol Binding IC50.
On to `C1=C(c2c[nH]c3ccccc23)CCN(CCCCc2ccncc2)C1` [Example 3], for which the IC50 was 398 nM.
Turning to `O=C(CCCN1CC=C(c2ccccc2)CC1)c1ccncc1` [Example 10, 4-(3,6-Dihydro-4-phenyl-1(2H)-pyridinyl)-1-(4-pyridinyl)-1-butanone], the IC50 turned out to be 408 nM.
As to `C1=C(c2ccccc2)CCN(CCCCc2cccnc2)C1` [Example 12, 3-[4-(3,6-Dihydro-4-phenyl-1(2H)-pyridinyl)butyl]-pyridine], the IC50 worked out at 170 nM.
Turning to `C1=C(c2cccs2)CCN(CCCCc2cccnc2)C1` [Example 8, 3-[4-[3,6-Dihydro-4-(2-thienyl)-1(2H)-pyridinyl]-butyl]pyridine], the IC50 amounted to 1290 nM.
Still for that read-out and setting: the same measure for `C1=C(c2ccccn2)CCN(CCCCc2ccncc2)C1` [Example 2, 2-[1,2,3,6-Tetrahydro-1-[4-(4-pyridinyl)butyl]-4-pyridinyl]pyridine]: 448 nM.

The next experiment concerns Brain Dopamine Synthesis. The experiment can be described thus: Inhibition of dopamine synthesis in rats (reversal of brain dopamine synthesis). It is filed as in vivo. Particulars: Rattus norvegicus, IP. On the procedure:
as §1
For `C1=C(c2ccccc2)CCN(CCCCc2ccncc2)C1` [Example 1, 4-[4-(3,6-Dihydro-4-phenyl-1(2H)-pyridinyl)butyl]-pyridine], the inhibition in vivo – broadly, the drop in the measured response relative to a control, in per cent – at 10 mg/kg turned out to be 87%.
`O=C(CCCN1CC=C(c2ccccc2)CC1)c1ccncc1` [Example 10, 4-(3,6-Dihydro-4-phenyl-1(2H)-pyridinyl)-1-(4-pyridinyl)-1-butanone]: the inhibition in vivo at 10 mg/kg is 57%.
Still for that read-out and setting: for `C1=C(c2ccccc2)CCN(CCCCc2cccnc2)C1` [Example 12, 3-[4-(3,6-Dihydro-4-phenyl-1(2H)-pyridinyl)butyl]-pyridine] the value was 80%; for `C1=C(c2ccccc2)CCN(CCCCc2cnc3ccccc3c2)C1` [Example 13, 3-[4-(3,6-Dihydro-4-phenyl-1(2H)-pyridinyl)butyl]-quinoline], 100%; for `C1=C(c2ccccc2)CCN(CCCc2ccncc2)C1` [Example 5, 4-[3-(3,6-Dihydro-4-phenyl-1(2H)-pyridinyl)propyl]-pyridine], 61%.
The same measure, in the same setting: for `C1=C(c2cccs2)CCN(CCCCc2cccnc2)C1` [Example 8, 3-[4-[3,6-Dihydro-4-(2-thienyl)-1(2H)-pyridinyl]-butyl]pyridine] the value was 71%; for `O=C(CCCN1CC=C(c2ccccc2)CC1)c1cccnc1` [Example 9, 4-(3,6-Dihydro-4-phenyl-1(2H)-pyridinyl)-1-(3-pyridinyl)-1-butanone], 50%.
As for `C1=C(c2ccccn2)CCN(CCCCc2ccncc2)C1` [Example 2, 2-[1,2,3,6-Tetrahydro-1-[4-(4-pyridinyl)butyl]-4-pyridinyl]pyridine], the inhibition in vivo at 10 mg/kg came out at 88%.
